Laboratory results: publication PMC9956870, “Exploring functional and structural features of chemically related natural prenylated hydroquinone and benzoic acid from Piper crassinervium (Piperaceae) on bacterial peroxiredoxin inhibition” (PLOS ONE, 2023)

How the values were obtained:
[1] = target: T1, Prx2 (HsPrx2) (Homo sapiens, UniProt P32119); test: NADPH-coupled peroxidase assay (yeast Trx system); format: biochemical
T1 construct: gene PRDX2
T1 sequence (P32119 2-198): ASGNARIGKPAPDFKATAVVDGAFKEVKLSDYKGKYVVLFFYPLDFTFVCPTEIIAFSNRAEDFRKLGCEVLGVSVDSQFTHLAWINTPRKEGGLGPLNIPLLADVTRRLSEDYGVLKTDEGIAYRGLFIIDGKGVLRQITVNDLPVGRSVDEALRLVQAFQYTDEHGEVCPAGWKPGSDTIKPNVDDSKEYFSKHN

[2] = target: T2, alkyl hydroperoxide reductase C (SeAhpC) (Staphylococcus epidermidis, UniProt Q8CMQ2); test: NADPH-coupled peroxidase assay; format: biochemical
T2 construct: gene ahpC
T2 sequence (Q8CMQ2 1-189): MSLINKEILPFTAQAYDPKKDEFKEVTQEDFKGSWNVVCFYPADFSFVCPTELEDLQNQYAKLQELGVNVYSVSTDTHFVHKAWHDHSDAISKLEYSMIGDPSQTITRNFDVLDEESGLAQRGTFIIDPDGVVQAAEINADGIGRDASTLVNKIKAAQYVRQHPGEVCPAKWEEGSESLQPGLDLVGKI

In the case of `CCN1C(=O)C=CC1=O` [NEM, N-ethylmaleimide], the peroxidase initial rate [1] is reported as 0.02 ± 0.01 μMs^-1 (v0; untreated 0.62 ± 0.03) and the NADPH-coupled peroxidase assay [2] is reported as “As expected for the samples subjected to NEM treatment, no peroxidase activity was detected to both enzymes”.
